The values below come from patent publication US7923465B2, “Cannabinoid receptor ligands, pharmaceutical compositions containing them, and process for their preparation” (priority 2005, dated 2011).

Counter-ions that a name gives are not always drawn. Like-named read-outs stand apart in the source and are kept apart here.

The target of one data set is hCB2 (Homo sapiens, UniProt P34972). The experiment in a line: In vitro binding assay using hCB2-CHO membranes, [3H]-CP-55,940 displacement (Protocol IV). To be noted: for inhibition at 0.3 µM: 1 h, read-out: % Displacement Protocol IV. Details: expressed in transfected cells; host or cells: CHO (hCB2-CHO, generated in-house). The protocol:
IV. Protocol for In Vitro Assay Using hCB2-CHO Membranes:
In this assay, [^3H]-CP-55,940 was used as the radioligand to bind human CB2 receptor expressed on the membranes from CHO cells (hCB2-CHO cell line was generated in-house) which can be displaced by unlabeled ligands having affinity to the CB2 receptor.
The assay was performed according to the modified method of Ross et al., 1999 (Br. J. Pharmacol. 128, 735-743). The reaction was set up in a total volume of 200 μl in PEI (0.2%) precoated Millipore GFB filter plates. 1 mM stocks of test compounds were prepared in DMSO and tested at a final concentration of 300 nM. The non-specific binding was determined by 0.5 μM CP-55, 940. The total reaction mixture contained Tris-BSA buffer (50 mM Tris, 5 mM MgCl2, 1 mM EDTA, pH 7.4 with 0.1% BSA), unlabelled CP-55, 940 (0.5 μM) or test samples, [^3H]-CP-55, 940 (0.75 nM) and 25-50 μg of human CB2 receptor preparation. The assay mixture (with or without the test compound) was incubated at 30° C. for 1 hour. The reaction was stopped by rapid filtration under vacuum and the radioactivity on the filters was measured by liquid scintillation counting.
(§1) The percent (%) displacement by a test ligand was calculated by comparing the specific bound values.

The target of a further data set is CB1 (Rattus norvegicus, UniProt P20272). The experiment in a line: Rat CB1 receptor binding using brain membrane, [3H]SR141716A displacement (Protocol I). Details: CB1 receptor present in a rat brain membrane preparation; from tissue; host or cells: rat brain membrane; inhibition: dose or concentration left out as unconfirmed. The settings on record: for inhibition: 1 h. The protocol:
I. In Vitro Protocol for Rat CB1 Receptor Binding Using Brain Membrane
In this assay, [^3H]SR141716A (5-(4-chlorophenyl)-1-(2,4-dichlorophenyl)-4-methyl-N-(1-piperidyl)pyrazole-3-carboxamide) was used to bind the CB1 receptor present in a rat brain membrane preparation which can be displaced by unlabeled ligands having affinity to the CB1 receptor.
The assay was performed according to the modified method of Thomas et al., 1998 (JPET 285: 285-292). The total reaction mixture ([…]) contained Tris-BSA buffer (50 mM Tris, pH 7.4 with 1.5% BSA) or unlabeled SR141716A […] or test samples […], [^3H] SR141716A (2 nM) and […] of rat brain membrane. The non-specific binding was defined by […] of SR141716A. The assay mixture was incubated at 37° C. for 1 hour. The reaction was then stopped by rapid filtration under vacuum using Whatman GF/B-96 micro filter plate. A scintillation cocktail was added and radioactive counts were measured using a Topcount beta scintillation counter.
The standard and test sample dilutions were made in an assay buffer containing either ethanol or DMSO at a final concentration of 1%.
as §1

[1] abbreviates: hCB2-CHO membranes, [3H]-CP-55,940 displacement.
The mark [2] stands for this setting: rat brain membrane, [3H]SR141716A displacement, read-out: % Displacement Protocol I.
Where [3] appears, read: read-out: % Displacement Protocol I, rat brain membrane, [3H]SR141716A displacement.
The mark [4] stands for this setting: rat brain membrane, [3H]SR141716A displacement.

Chain of CB1 (P20272 whole entry): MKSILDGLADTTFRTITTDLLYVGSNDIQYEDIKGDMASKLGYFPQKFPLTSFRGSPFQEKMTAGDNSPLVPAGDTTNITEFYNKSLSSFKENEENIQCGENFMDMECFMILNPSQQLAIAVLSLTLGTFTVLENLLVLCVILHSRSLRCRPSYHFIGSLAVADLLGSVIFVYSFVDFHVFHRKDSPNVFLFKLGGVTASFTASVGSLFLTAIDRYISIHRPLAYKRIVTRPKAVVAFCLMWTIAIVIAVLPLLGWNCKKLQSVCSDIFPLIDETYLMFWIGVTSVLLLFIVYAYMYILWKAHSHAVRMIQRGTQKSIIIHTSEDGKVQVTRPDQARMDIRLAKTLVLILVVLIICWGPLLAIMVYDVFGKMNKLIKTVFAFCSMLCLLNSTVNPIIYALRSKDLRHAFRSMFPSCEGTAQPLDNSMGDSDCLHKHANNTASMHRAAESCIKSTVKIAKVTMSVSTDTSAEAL
Chain of hCB2 (P34972 whole entry): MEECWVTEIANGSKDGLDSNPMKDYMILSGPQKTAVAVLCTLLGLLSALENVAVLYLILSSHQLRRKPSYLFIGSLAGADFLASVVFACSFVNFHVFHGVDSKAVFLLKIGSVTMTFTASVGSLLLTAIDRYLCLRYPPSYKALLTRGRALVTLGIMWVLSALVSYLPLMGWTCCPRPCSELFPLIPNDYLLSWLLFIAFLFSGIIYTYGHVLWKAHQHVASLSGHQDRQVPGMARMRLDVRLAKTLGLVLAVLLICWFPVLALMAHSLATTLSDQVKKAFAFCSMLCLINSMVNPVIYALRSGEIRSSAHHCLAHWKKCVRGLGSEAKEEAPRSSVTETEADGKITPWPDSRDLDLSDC

In the case of `O=C(Nc1cccc(Br)c1)c1n[nH]c2c1C1(c3ccc(Cl)cc3)CCC2C1` (centres unmarked) [Example 217, N(3)-(3-Bromophenyl)-4-(4-chlorophenyl)-4,5,6,7-tetrahydro-1H-4,7-methano-indazole-3-carboxamide], the inhibition at 0.3 µM on hCB2 (setting [1]) worked out at 10.7%. The inhibition at CB1 (setting [2]) came to 20.5%.

`O=C(Nc1ccccc1)c1nn(-c2ccc(Cl)cc2Cl)c2c1C1CCC2C1` (centres unmarked) [Example 243, N(3)-Phenyl-1-(2,4-dichlorophenyl)-4,5,6,7-tetrahydro-1H-4,7-methano-indazole-3-carboxamide] gave a melting point of 66 to 68 °C. For the same compound, the inhibition at CB1 (setting [2]) came out at 23.5%.

With `O=C(NCc1ccccc1)c1nn(-c2ccccc2Cl)c2c1C1CCC2C1` (centres unmarked) [Example 207, N(3)-Benzyl-1-(2-chlorophenyl)-4,5,6,7-tetrahydro-1H-4,7-methano-indazole-3-carboxamide], the inhibition on CB1 (setting [2]) is -1.2%.

In the case of `O=C(NCc1ccc(C(F)(F)F)cc1)c1nn(-c2ccc(Cl)cc2)c2c1C1CC3CC(C1)CC2C3` [Example 116, N(7)-(4-Trifluoromethylbenzyl)-5-(4-chlorophenyl)-5,6-diazatetracyclo[7.3.1.1^3,11.0^4,8]tetradeca-4(8),6-diene-7-carboxamide], at CB1 (setting [3]), the inhibition was 24.9%.

`O=C(NCCc1ccc(F)cc1)c1nn(-c2ccc(Cl)cc2Cl)c2c1C1CCC2C1` (centres unmarked) [Example 255, N(3)-[2-(4-fluorophenyl)ethyl]-1-(2,4-dichlorophenyl)-4,5,6,7-tetrahydro-1H-4,7-methano-indazole-3-carboxamide]: on CB1 (setting [2]), the inhibition is 23.9%.

As to `O=C(NCCc1ccccc1)c1nn(-c2ccc(Cl)cc2Cl)c2c1C1CCC2C1` (centres unmarked) [Example 254, N(3)-(2-phenylethyl)-1-(2,4-dichlorophenyl)-4,5,6,7-tetrahydro-1H-4,7-methano-indazole-3-carboxamide], on CB1 (setting [2]), the inhibition turned out to be 9.1%.

On to `O=C(NNc1ccccc1Cl)c1nn(-c2ccc(Cl)cc2)c2c1C1CC3CC(C1)CC2C3` [Example 124, N(7)-(2-Chlorophenylamino)-5-(4-chlorophenyl)-5,6-diazatetracyclo[7.3.1.1^3,11.0^4,8]tetradeca-4(8),6-diene-7-carboxamide hydrochloride], for which the inhibition at CB1 (setting [3]) was determined as 80.1%.

As for `O=C(NN1CCCCC1)c1nn(-c2ccc(Cl)cc2Cl)c2c1C1c3ccccc3C2C2C(=O)N(c3ccc(Cl)cc3)C(=O)C12` (centres unmarked) [Example 602, N(12)-Piperidino-16-(4-chlorophenyl)-10-(2,4-dichlorophenyl)-15,17-dioxo-10,11,16-triazapentacyclo[6.5.2.0^2,7.0^9,13.0^14,18]octadeca-2,4,6,9(13),11-pentaene-12-carboxamide], the “% Displacement Protocol IV” value on hCB2 (setting [1]) worked out at 16.4%. In addition, the “% Displacement Protocol I” value on CB1 (setting [4]) was found to be 4.1%.

Take `O=C(Nc1ccccc1)c1nn(-c2ccc(Cl)cc2)c2c1C1CC3CC(C1)CC2C3` [Example 142, N(7)-Phenyl-5-(4′-chlorophenyl)-5,6-diazatetracyclo[7.3.1.1^3,11.0^4,8]tetradeca-4(8)-6-diene-7-carboxamide]: the “% Displacement Protocol IV” value on hCB2 (setting [1]) was 9.86%. The “% Displacement Protocol I” value on CB1 (setting [4]) is given as 25%.

In the case of `CC[C@H](NC(=O)c1nn(-c2ccc(F)cc2F)c2c1C1CC3CC(C1)CC2C3)c1ccccc1` [Example 152, N(7)-[(S)-1-Phenylpropyl]-5-(2,4-difluorophenyl)-5,6-diazatetracyclo[7.3.1.1^3,11.0^4,8]tetradeca-4(8),6-diene-7-carboxamide], the melting point fell in the range of 127 to 129 °C. Also, the inhibition at 0.3 µM at hCB2 amounted to 60.3%.

`CC12CCC(C1)C(C)(C)C2NC(=O)c1nn(-c2ccc(F)cc2F)c2c1C1CCC2(C)C1(C)C` (centres unmarked) [Example 406, N(3)-(1,3,3-Trimethylbicyclo[2.2.1]hept-2-yl)-1-(2,4-difluorophenyl)-7,8,8-trimethyl-4,5,6,7-tetrahydro-1H-4,7-methano-indazole-3-carboxamide]: the melting point was in the range of 171 to 173 °C. For the same compound, at hCB2, the inhibition at 0.3 µM is 94.3%.

Regarding `O=C(c1nn(-c2ccc(Cl)cc2)c2c1C1CC3CC(C1)CC2C3)N1CCCCC1` [Example 141, 7-(4′-Chlorophenyl)-6,7-diazatetracyclo[7.3.1.1^3,11.0^4,8]tetradeca-4(8)-5-dien-5-yl-piperidinomethanone], on CB1 (setting [4]), the “% Displacement Protocol I” value was found to be 17%.

Regarding `O=C(NC12CC3CC(CC(C3)C1)C2)c1nn(-c2ccc(F)cc2)c2c1C1CCC2C1` (centres unmarked) [Example 283, N5-(Adamantan-1-yl)-3-(4-fluorophenyl)-3,4-diazatricyclo[5.2.1.0^2,6]deca-2(6),4-diene-5-carboxamide], the melting point lay in the range of 189 to 191 °C. Moreover, the inhibition at 0.3 µM on hCB2 amounted to 94.8%.

The compound `CCC(C)(C)NC(=O)c1nn(-c2ccc(F)cc2F)c2c1C1CCC2C1` (centres unmarked) [Example 313, N(3)-(tert-Pentyl)-1-(2,4-difluorophenyl)-4,5,6,7-tetrahydro-1H-4,7-methano-indazole-3-carboxamide] gave a melting point of 78 to 80 °C. In addition, the inhibition at 0.3 µM on hCB2 came to 98.2%.

For `O=C(NCc1ccncc1)c1nn(-c2ccc(Cl)cc2)c2c1C1CC3CC(C1)CC2C3` [Example 105, N(7)-(4-Pyridylmethyl)-5-(4-chlorophenyl)-5,6-diazatetracyclo[7.3.1.1^3,11.0^4,8]tetradeca-4(8),6-diene-7-carboxamide], the melting point lay within 167 to 168 °C. Further, at hCB2 (setting [1]), the inhibition at 0.3 µM is 22.4%.

`CC[C@H](NC(=O)c1nn(-c2ccc(F)cc2F)c2c1C1CCC2C1)c1ccccc1` (stereo partly drawn) [Example 300, N5-[(1S)-1-Phenylpropyl]-3-(2,4-difluorophenyl)-3,4-diazatricyclo[5.2.1.0^2,6]deca-2(6),4-diene-5-carboxamide] yielded a melting point of 100 to 103 °C. Further, the inhibition at 0.3 µM on hCB2 came to 90.1%.

On to `CC12CCC(c3c(C(=O)NNc4ncccc4Cl)nn(-c4ccc(Cl)cc4Cl)c31)C2(C)C` (centres unmarked) [Example 404, N(3)-[(3-chloropyridin-2-yl)amino]-1-(2,4-Dichlorophenyl)-7,8,8-trimethyl-4,5,6,7-tetrahydro-1H-4,7-methano-indazole-3-carboxamide], for which the melting point lay within 142 to 145 °C. In addition, the inhibition at 0.3 µM on hCB2 (setting [1]) is 23.8%.

Turning to `O=C(NC1CC1)c1nn(-c2ccc(F)cc2F)c2c1C1CCC2C1` (centres unmarked) [Example 317, N(3)-Cyclopropyl-1-(2,4-difluorophenyl)-4,5,6,7-tetrahydro-1H-4,7-methano-indazole-3-carboxamide], the melting point was in the range of 59 to 61 °C. Moreover, the inhibition at 0.3 µM at hCB2 amounted to 16.9%.

Compound `O=C(NC1C2CC3CC(C2)CC1C3)c1nn(-c2ccc(F)cc2F)c2c1C1CCC2C1` (centres unmarked) [Example 309, N5-(2-Adamantyl)-3-(2,4-difluorophenyl)-3,4-diazatricyclo[5.2.1.0^2,6]deca-2(6),4-diene-5-carboxamide] showed a melting point of 159 to 161 °C. Moreover, the inhibition at 0.3 µM on hCB2 worked out at 98.5%.

For the compound `COc1ccc(-n2nc(C(=O)NN3CCCCC3)c3c2C2CC4CC(CC3C4)C2)cc1` [Example 163, N(7)-Piperidino-5-(4-methoxyphenyl)-5,6-diazatetracyclo[7.3.1.1^3,11.0^4,8]tetradeca-4(8),6-diene-7-carboxamide], the melting point stood at 156 °C. Moreover, on hCB2 (setting [1]), the inhibition at 0.3 µM was 14.5%.

In turn, `O=C(NCc1cccnc1)c1nn(-c2ccc(Cl)cc2)c2c1C1CC3CC(C1)CC2C3` [Example 104, N(7)-(3-Pyridylmethyl)-5-(4-chlorophenyl)-5,6-diazatetracyclo[7.3.1.1^3,11.0^4,8]tetradeca-4(8),6-diene-7-carboxamide] showed a melting point of 180 °C. The inhibition at 0.3 µM at hCB2 (setting [1]) is 20.2%.

For the compound `CC(C)(NC(=O)c1nn(-c2ccc(F)cc2F)c2c1C1CCC2C1)c1ccccc1Cl` (centres unmarked) [Example 295, N5-[1-(2-Chlorophenyl)-1-methylethyl]-3-(2,4-difluorophenyl)-3,4-diazatricyclo[5.2.1.0^2,6]deca-2(6),4-diene-5-carboxamide], the melting point lay in the range of 176 to 179 °C. In addition, the inhibition at 0.3 µM on hCB2 is 100%.
